How the values were obtained:
Assay in all cases: biochemical
Type in all cases: biochemical
382 unique human kinases [1] = molecular target: T1, 382 unique human kinases (Homo sapiens, UniProt Q12866); settings: c-MER, 10 uM; for remaining activity at 10 µM: read-out: % Enzyme Activity (relative to DMSO controls)
T1 construct: purchased Reaction Biology (HotSpot contract assay)
T1 sequence (Q12866 21-999): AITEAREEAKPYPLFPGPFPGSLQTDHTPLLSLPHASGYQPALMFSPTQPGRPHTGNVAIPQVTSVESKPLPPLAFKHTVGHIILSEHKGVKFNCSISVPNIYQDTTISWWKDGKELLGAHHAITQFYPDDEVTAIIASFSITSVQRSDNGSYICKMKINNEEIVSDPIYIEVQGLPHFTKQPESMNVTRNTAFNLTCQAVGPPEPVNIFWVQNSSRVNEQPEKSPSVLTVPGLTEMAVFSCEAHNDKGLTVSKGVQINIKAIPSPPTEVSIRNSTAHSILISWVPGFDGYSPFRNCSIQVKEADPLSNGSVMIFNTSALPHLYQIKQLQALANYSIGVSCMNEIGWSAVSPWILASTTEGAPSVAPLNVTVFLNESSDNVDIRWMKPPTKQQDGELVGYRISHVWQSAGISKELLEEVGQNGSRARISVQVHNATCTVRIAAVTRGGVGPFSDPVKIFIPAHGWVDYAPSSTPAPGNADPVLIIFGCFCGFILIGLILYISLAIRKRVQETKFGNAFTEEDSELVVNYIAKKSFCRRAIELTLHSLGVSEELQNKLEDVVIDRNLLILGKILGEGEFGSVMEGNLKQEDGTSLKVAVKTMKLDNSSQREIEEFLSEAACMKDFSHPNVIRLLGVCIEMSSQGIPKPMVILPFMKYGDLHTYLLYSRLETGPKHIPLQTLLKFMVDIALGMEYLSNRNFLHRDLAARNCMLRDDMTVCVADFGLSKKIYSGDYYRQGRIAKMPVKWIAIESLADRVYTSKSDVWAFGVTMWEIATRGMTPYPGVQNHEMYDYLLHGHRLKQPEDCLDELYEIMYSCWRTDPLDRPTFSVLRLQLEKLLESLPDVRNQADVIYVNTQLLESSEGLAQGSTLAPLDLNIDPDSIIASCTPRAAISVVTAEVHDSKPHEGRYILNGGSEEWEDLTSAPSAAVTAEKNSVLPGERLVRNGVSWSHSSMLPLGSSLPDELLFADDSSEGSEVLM

382 unique human kinases [2] = molecular target: T2, 382 unique human kinases (Homo sapiens, UniProt Q86UE8); settings: TLK2, 10 uM; for remaining activity at 10 µM: read-out: % Enzyme Activity (relative to DMSO controls)
T2 construct: purchased Reaction Biology (HotSpot contract assay)
T2 sequence (Q86UE8 whole entry): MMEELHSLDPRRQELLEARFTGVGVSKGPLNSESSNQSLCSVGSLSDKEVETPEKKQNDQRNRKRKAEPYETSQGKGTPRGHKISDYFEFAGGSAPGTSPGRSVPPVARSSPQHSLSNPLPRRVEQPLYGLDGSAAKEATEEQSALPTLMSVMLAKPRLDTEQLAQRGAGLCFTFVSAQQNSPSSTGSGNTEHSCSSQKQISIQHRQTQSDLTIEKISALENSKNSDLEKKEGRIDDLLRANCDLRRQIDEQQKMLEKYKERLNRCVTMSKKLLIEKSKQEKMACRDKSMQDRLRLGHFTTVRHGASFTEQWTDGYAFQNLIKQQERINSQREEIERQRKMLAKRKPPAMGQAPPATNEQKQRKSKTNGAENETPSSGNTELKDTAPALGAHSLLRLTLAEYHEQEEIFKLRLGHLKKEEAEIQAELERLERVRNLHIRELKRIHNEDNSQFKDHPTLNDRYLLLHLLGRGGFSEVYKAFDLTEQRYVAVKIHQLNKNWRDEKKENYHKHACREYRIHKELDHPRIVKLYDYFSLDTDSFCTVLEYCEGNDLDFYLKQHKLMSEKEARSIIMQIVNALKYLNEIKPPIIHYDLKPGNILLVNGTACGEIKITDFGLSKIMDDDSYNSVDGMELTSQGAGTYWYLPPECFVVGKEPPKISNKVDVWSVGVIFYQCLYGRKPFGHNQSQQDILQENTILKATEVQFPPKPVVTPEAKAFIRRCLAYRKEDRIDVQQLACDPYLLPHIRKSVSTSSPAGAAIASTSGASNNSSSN

382 unique human kinases [3] = molecular target: T3, 382 unique human kinases (Homo sapiens, UniProt Q9Y6E0); settings: MST3/STK24, [ATP] 20 µM, compound 10 uM; for remaining activity at 10 µM: read-out: % Enzyme Activity (relative to DMSO controls)
T3 construct: purchased Reaction Biology (HotSpot contract assay)
T3 sequence (Q9Y6E0 whole entry): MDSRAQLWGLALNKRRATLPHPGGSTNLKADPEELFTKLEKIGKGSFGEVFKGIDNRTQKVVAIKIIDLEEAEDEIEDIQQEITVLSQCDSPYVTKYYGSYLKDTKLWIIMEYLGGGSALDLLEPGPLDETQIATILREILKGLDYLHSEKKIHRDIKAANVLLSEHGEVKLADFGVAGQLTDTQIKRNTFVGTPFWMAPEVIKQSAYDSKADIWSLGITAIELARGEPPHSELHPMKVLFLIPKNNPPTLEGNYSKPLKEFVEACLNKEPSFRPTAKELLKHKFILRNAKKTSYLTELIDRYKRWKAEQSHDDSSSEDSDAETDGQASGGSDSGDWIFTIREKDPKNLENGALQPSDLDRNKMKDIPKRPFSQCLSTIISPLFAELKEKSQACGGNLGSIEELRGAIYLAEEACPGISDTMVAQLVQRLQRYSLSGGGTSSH

382 unique human kinases [4] = molecular target: T4, 382 unique human kinases (Homo sapiens, UniProt O95382); settings: MEKK6, 10 uM; for remaining activity at 10 µM: read-out: % Enzyme Activity (relative to DMSO controls)
T4 construct: purchased Reaction Biology (HotSpot contract assay)
T4 sequence (O95382 1-1288): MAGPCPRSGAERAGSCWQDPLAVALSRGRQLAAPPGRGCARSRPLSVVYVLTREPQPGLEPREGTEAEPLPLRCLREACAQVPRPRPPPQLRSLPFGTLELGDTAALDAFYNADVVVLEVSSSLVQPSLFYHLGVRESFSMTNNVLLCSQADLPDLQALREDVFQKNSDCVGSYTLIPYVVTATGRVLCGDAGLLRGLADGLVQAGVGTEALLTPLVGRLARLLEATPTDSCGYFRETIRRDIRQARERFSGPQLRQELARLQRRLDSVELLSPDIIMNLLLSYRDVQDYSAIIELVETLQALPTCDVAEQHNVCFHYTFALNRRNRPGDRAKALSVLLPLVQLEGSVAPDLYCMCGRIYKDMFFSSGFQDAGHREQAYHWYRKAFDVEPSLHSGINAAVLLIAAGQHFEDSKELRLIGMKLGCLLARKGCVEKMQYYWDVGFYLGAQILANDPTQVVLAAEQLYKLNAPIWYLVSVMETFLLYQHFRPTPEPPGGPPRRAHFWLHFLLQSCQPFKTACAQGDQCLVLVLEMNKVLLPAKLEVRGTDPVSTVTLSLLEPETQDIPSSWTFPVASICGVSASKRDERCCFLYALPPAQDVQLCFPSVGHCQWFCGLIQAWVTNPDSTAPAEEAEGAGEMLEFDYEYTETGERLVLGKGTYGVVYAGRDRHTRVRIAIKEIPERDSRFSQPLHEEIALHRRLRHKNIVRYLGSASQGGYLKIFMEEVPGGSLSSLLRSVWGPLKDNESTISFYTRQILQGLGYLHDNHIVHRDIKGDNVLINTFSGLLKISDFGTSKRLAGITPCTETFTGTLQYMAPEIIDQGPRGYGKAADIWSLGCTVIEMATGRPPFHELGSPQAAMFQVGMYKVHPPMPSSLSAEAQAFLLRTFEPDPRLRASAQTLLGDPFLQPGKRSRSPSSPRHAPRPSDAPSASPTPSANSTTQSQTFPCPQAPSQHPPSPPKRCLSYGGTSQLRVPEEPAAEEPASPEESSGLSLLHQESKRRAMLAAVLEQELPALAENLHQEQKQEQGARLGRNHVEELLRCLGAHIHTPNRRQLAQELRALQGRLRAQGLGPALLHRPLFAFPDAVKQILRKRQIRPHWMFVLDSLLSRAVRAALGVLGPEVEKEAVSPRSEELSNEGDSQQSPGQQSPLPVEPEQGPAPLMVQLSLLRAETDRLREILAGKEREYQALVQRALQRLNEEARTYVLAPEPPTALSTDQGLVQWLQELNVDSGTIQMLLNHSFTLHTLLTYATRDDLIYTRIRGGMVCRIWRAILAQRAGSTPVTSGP

382 unique human kinases [5] = molecular target: T5, 382 unique human kinases (Homo sapiens, UniProt P31749, E17K); settings: AKT1 (E17K), 10 uM; for remaining activity at 10 µM: read-out: % Enzyme Activity (relative to DMSO controls)
T5 construct: purchased Reaction Biology (HotSpot contract assay)
T5 sequence (P31749 whole entry E17K): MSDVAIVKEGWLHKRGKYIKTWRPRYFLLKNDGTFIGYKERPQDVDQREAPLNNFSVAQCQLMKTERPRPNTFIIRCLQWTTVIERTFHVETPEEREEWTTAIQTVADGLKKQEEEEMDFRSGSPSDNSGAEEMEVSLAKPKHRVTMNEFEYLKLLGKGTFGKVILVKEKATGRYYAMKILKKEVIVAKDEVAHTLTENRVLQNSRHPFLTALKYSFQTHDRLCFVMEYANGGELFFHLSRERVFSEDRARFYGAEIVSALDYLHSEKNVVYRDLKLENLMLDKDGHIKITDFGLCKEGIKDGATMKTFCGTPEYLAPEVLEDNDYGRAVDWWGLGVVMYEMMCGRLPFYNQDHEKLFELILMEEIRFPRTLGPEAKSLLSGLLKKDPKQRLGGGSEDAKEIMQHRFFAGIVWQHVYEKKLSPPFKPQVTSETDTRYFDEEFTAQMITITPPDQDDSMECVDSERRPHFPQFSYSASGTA

382 unique human kinases [6] = molecular target: T6, 382 unique human kinases (Homo sapiens, UniProt P57059); settings: SIK1, [ATP] 30 µM
T6 construct: purchased Reaction Biology (HotSpot contract assay)
T6 sequence (P57059 whole entry): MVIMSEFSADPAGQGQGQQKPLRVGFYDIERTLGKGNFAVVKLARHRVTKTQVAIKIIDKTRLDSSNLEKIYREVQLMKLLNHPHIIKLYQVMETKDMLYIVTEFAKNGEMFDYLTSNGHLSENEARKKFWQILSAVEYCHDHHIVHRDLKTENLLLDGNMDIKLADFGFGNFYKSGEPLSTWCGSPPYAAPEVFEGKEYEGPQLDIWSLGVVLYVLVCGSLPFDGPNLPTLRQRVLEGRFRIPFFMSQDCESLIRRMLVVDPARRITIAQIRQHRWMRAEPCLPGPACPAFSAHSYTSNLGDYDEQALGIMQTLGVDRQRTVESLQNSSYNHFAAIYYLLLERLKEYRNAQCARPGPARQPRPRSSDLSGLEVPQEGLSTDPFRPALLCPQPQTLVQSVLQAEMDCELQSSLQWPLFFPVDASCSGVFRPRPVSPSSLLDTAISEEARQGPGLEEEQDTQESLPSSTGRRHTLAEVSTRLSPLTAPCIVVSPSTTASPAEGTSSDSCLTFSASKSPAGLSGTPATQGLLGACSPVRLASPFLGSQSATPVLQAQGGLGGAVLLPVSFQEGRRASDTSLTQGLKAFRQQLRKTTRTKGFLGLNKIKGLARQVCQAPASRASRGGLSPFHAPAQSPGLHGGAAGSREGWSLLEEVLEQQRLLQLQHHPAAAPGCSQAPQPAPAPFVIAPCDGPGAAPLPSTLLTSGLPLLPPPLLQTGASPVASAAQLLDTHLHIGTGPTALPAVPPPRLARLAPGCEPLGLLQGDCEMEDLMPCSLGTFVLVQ

[7] = compound 10 uM, read-out: % Enzyme Activity (relative to DMSO controls)

Structure (SMILES)	remaining activity at 10 µM (382 unique human kinases [1])	remaining activity at 10 µM (382 unique human kinases [2])	remaining activity at 10 µM (382 unique human kinases [3])	remaining activity at 10 µM (382 unique human kinases [4])	remaining activity at 10 µM (382 unique human kinases [5])	remaining activity at 1 µM (382 unique human kinases [6]; compound 1 uM, read-out: % Enzyme Activity (relative to DMSO controls))	remaining activity at 10 µM (382 unique human kinases [6]; [7])	% Enzyme Activity (relative to DMSO controls) (382 unique human kinases [1])	% Enzyme Activity (relative to DMSO controls) (382 unique human kinases [2])	% Enzyme Activity (relative to DMSO controls) (382 unique human kinases [3])	% Enzyme Activity (relative to DMSO controls) (382 unique human kinases [4])	% Enzyme Activity (relative to DMSO controls) (382 unique human kinases [5])	% Enzyme Activity (relative to DMSO controls) (382 unique human kinases [6]; compound 10 uM)
CC(C)c1cc(-c2n[nH]c(=O)n2-c2ccc3c(ccn3C)c2)c(O)cc1O [Ganetespib (STA9090)]	63.5%	–	–	–	–	–	–	–	–	–	–	–	–
CC(C)c1cc(-c2n[nH]c(=O)n2-c2ccc3c(ccn3C)c2)c(O)cc1O [Ganetespib]	–	91.9%	72.1%	94.2%	94.2%	75.9%	11.4%	–	–	–	–	–	–
CCNC(=O)c1noc(-c2cc(C(C)C)c(O)cc2O)c1-c1ccc(CN2CCOCC2)cc1 [Luminespib (AUY-922)]	97.7%	–	–	–	–	–	–	93.85%	–	–	–	–	–
CCNC(=O)c1noc(-c2cc(C(C)C)c(O)cc2O)c1-c1ccc(CN2CCOCC2)cc1 [Luminespib]	–	98.7%	60%	96%	101%	–	80.3%	–	97.34%	58.15%	94.49%	93.12%	79.13%

— paper PMC8550792, “Evolution of kinase polypharmacology across HSP90 drug discovery” (Cell Chemical Biology, 2021)
